Assay results as given in paper PMC9137037 (Frontiers in Oncology, 2022).
Like-named read-outs stand apart in the source and are kept apart here. Where no end group is shown, it is not given here.

What was measured:
nivolumab = settings: surface plasmon resonance; cited from earlier work
Experimental: (§1) The PD-1 amino acids 92-110 (^92[…]^101[…]^110) chosen for evaluation were selected based on the crystal structure of PD-1:PD-L1. This PD-1 sequence was synthesized as a chimeric construct with a promiscuous T-cell helper epitope derived from the measles virus fusion protein (MVF, amino acids 288-302). The specificity of the selected PD-1 peptide was determined by surface plasmon resonance spectroscopy.

rhPD-L1 = settings: surface plasmon resonance; cited from earlier work
Experimental: as §1

BALB/c mice = test: Observation for autoimmune symptoms in immunized mice; assay type: in vivo, mouse
Text: The common autoimmune symptoms are identified as follows: skin rashes, low-grade fever, achy muscles, fatigue, hair loss, trouble concentrating, and so on. […] For the dogs, the high volume of ISA 720 caused a lesion near the injection site that might result in mild swelling, but the symptoms were resolved weeks after. The immunized monkeys had some swelling at or near the site of IM injection, especially after the second or third dose and more frequent in females than males. In all the clinical observations, these animals either had recovered or were in the process of recovering. Despite these adverse clinical findings, all of them were active and in good condition throughout the project. Overall, there were no observable signs or uncontrolled autoimmune symptoms.

[1] = molecular target: T1, recombinant human PD-1 (rhPD-1) (Homo sapiens, UniProt Q15116); test: ELISA of monkey serum with rhPD-1 as capture agent; assay type: binding; settings: monkey sera
T1 construct: His tag; purchased ACROBiosystems PD1-H5221
Experimental: For the detection of PD-1 human recombinant protein activity, the human recombinant protein PD-1 (PD1-H5221, HIS tag; ACROBiosystems, Newark, DE, USA) 100 μl at the concentration of […] were coated on the 96 wells plate as an antigen. The following procedures were performed as the description of ELISA.
In a separate experiment, these monkey serum samples were tested using recombinant human PD-1 (rhPD-1) as the capture agent. […] See Table 2 for summary of mouse, dog, and non-human primate experiments.

[2] = Toxicokinetics of APi2568 in monkey plasma (UHPLC-MS/MS); assay type: in vivo, cynomolgus monkey; settings: for Cmax: UHPLC-MS/MS; for accumulation ratio (RA): TK profiles on days 1 and 43
Experimental: The non-human primate studies were carried out by the Charles River Laboratories (Ashland, OH USA). All the cynomolgus monkeys (Macaca fascicularis of Chinese origin) were obtained from Charles River Laboratories (Houston, TX, USA). In brief, the animals were approximately 2–4 years old and at the body weight between 2.2 and 3.1 kg at the initial dosing. The animals were kept at the temperature between 19°C and 24°C, humidity 30%–70%, and with 12 h light and 12 h dark light cycle. The Good manufacturing practice (GMP)-manufactured vaccine was used in the non-human primate study. […] Similar to mouse and dog dosing preparation, after the emulsion was prepared, a drop test was performed on each time of dosing to confirm that the emulsion had been prepared properly. […] The dose volume was split approximately equally across two different sites; 0.5 ml of the dose was intramuscularly (IM) injected into the right posterior lateral thigh, the left dosing was injected into the left site. All the animals’ body weights were monitored weekly after receiving. After each immunization, the animal body temperature was tested 6 and 24 h post each immunization. […] The animal bleed were collected before each time of immunization to monitor the antibody titers. There were two sets of non-human primate studies conducted. The first set of monkey study No.00213515 had 24 monkeys, 12 males, and 12 females divided into 4 groups: vehicle control, low dose 0.5 mg, medium dose 2 mg, and high dose 5 mg. There were 16 monkeys (8 males and 8 females) in the second set of monkey study No. 00213519. The monkeys in the four groups were vaccinated as follows: vehicle control, low dose 25 μg, medium dose 100 μg, and high dose 250 μg.
For the determination of TK parameters, blood samples were collected at various times after dosing analyzed using a validated UHPLC-MS/MS (ultra-high-performance liquid chromatography with tandem mass spectrometry) method, for the quantification of APi2568 in monkey plasma.

[3] = female, 2 mg/dose IM as PD1-Vaxx, day 43, mean
[4] = female, 5 mg/dose IM as PD1-Vaxx, day 1
[5] = female, 5 mg/dose IM as PD1-Vaxx, day 43, mean
[6] = male, 0.5 mg/dose IM as PD1-Vaxx, day 43, mean
[7] = male, 2 mg/dose IM as PD1-Vaxx, day 43, mean
[8] = male, 5 mg/dose IM as PD1-Vaxx, day 1
[9] = male, 5 mg/dose IM as PD1-Vaxx, day 43, mean

T1 sequence (Q15116 25-288): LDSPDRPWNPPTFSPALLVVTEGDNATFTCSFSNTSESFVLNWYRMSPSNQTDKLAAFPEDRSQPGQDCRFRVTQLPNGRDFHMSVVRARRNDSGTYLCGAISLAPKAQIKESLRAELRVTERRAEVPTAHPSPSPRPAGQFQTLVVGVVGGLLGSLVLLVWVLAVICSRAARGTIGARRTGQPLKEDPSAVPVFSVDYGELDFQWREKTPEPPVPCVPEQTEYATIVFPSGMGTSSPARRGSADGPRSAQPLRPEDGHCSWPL

KLLSLIKGVIVHRLEGVEGPSLGAISLAPKAQIKESLRAEL [MVF-PD-1(92-110)]
recognize and bind nivolumab (nivolumab): able to recognize and bind
recognize and bind rhPD-L1 (rhPD-L1): able to recognize and bind
induction of autoimmune responses (BALB/c mice): has not been observed
recognition of rhPD-1 by anti-APi2568 antibody in monkey serum (summary) ([1]; days 29, 43, 57): high binding ability against rh-PD-1
recognition of rhPD-1 by anti-APi2568 antibody in monkey serum (summary) ([1]; days 29, 43, 57, listed as APi2568): some of the anti-APi2568 antibody formed in monkeys recognized rhPD-1
plasma concentrations relative to the LLOQ ([2]; day 43, 0.5 mg/dose group (both sexes) and 2 mg/dose female monkeys): ≤ 6 fold
T1/2 mean value ([2]; day 43, 2 and 5 mg/dose male monkeys and a single 5 mg/dose female monkey): approximately 13 h
Cmax/D ([2]; female, 0.5 mg/dose IM as PD1-Vaxx, day 43, mean): 17.6 (ng/ml)/(mg/dose)
AUC(0-t)/D [2, 3]: 47.3 (ngh/ml)/(mg/dose)
Cmax/D [2, 3]: 6.92 (ng/ml)/(mg/dose)
Tlast [2, 3]: 8 h
AUC(0-t)/D [2, 4]: 3.79 (ngh/ml)/(mg/dose)
Cmax/D [2, 4]: 0.954 (ng/ml)/(mg/dose)
Tlast [2, 4]: 4 h
AUC(0-t) ([2]; female, 5 mg/dose IM as PD1-Vaxx, day 1, AUC calculable in 1 monkey/sex): 18.9 ng·h/mL
T1/2 ([2]; female, 5 mg/dose IM as PD1-Vaxx, day 43, calculable for a single female monkey): 19.6 h
AUC(0-t)/D [2, 5]: 266 (ngh/ml)/(mg/dose)
Cmax/D [2, 5]: 31.9 (ng/ml)/(mg/dose)
Tlast [2, 5]: 34 h
Tmax [2, 5]: 1 h
Cmax ([2]; female, cynomolgus monkey, plasma, im, 0.5 mg/dose, female, 0.5 mg/dose IM as PD1-Vaxx, day 43, plasma, mean (generally n = 3)): 8.81 ng/mL
Tmax ([2]; female, cynomolgus monkey, plasma, im, 0.5 mg/dose, read-out: Tmax): 2 h
AUC(0-t) ([2]; female, cynomolgus monkey, plasma, im, 2 mg/dose, female, 2 mg/dose IM as PD1-Vaxx, day 43, mean, one female had significantly lower exposure, read-out: AUC(0-t)): 94.5 ng·h/mL
Cmax ([2]; female, cynomolgus monkey, plasma, im, 2 mg/dose, female, 2 mg/dose IM as PD1-Vaxx, day 43, plasma, mean (generally n = 3)): 13.8 ng/mL
Tmax ([2]; female, cynomolgus monkey, plasma, im, 2 mg/dose, read-out: Tmax): 4 h
Cmax ([2]; female, cynomolgus monkey, plasma, im, 5 mg/dose, female, 5 mg/dose IM as PD1-Vaxx, day 1, plasma, mean as printed): 4.77 ng/mL
AUC(0-t) ([2]; female, cynomolgus monkey, plasma, im, 5 mg/dose, female, 5 mg/dose IM as PD1-Vaxx, day 43, mean, read-out: AUC(0-t)): 1330 ng·h/mL
Cmax ([2]; female, cynomolgus monkey, plasma, im, 5 mg/dose, female, 5 mg/dose IM as PD1-Vaxx, day 43, plasma, mean (generally n = 3)): 160 ng/mL
Tmax ([2]; female, cynomolgus monkey, plasma, im, 5 mg/dose, read-out: Tmax): 1 h
AUC(0-t)/D [2, 6]: 125 (ngh/ml)/(mg/dose)
Tlast [2, 6]: 8 h
AUC(0-t)/D [2, 7]: 247 (ngh/ml)/(mg/dose)
Tlast [2, 7]: 24 h
AUC(0-t)/D [2, 8]: 30.1 (ngh/ml)/(mg/dose)
Cmax/D [2, 8]: 2.01 (ng/ml)/(mg/dose)
Tlast [2, 8]: 24 h
AUC(0-t)/D [2, 9]: 693 (ngh/ml)/(mg/dose)
Cmax/D [2, 9]: 40.5 (ng/ml)/(mg/dose)
Tlast [2, 9]: 48 h
Tmax [2, 9]: 1 h
AUC(0-t) ([2]; male, cynomolgus monkey, plasma, im, 0.5 mg/dose, male, 0.5 mg/dose IM as PD1-Vaxx, day 43, mean, read-out: AUC(0-t)): 62.3 ng·h/mL
Tmax ([2]; male, cynomolgus monkey, plasma, im, 0.5 mg/dose, read-out: Tmax): 1 h
half-life ([2]; male, cynomolgus monkey, plasma, im, 2 mg/dose): 13.1 h
AUC(0-t) ([2]; male, cynomolgus monkey, plasma, im, 2 mg/dose, male, 2 mg/dose IM as PD1-Vaxx, day 43, mean, read-out: AUC(0-t)): 494 ng·h/mL
Tmax ([2]; male, cynomolgus monkey, plasma, im, 2 mg/dose, read-out: Tmax): 1 h
half-life ([2]; male, cynomolgus monkey, plasma, im, 5 mg/dose): 12.7 h
AUC(0-t) ([2]; male, cynomolgus monkey, plasma, im, 5 mg/dose, male, 5 mg/dose IM as PD1-Vaxx, day 1, AUC calculable in 1 monkey/sex, read-out: AUC(0-t)): 151 ng·h/mL
Cmax ([2]; male, cynomolgus monkey, plasma, im, 5 mg/dose, male, 5 mg/dose IM as PD1-Vaxx, day 1, plasma, mean as printed): 10.1 ng/mL
AUC(0-t) ([2]; male, cynomolgus monkey, plasma, im, 5 mg/dose, male, 5 mg/dose IM as PD1-Vaxx, day 43, mean, read-out: AUC(0-t)): 3460 ng·h/mL
Cmax ([2]; male, cynomolgus monkey, plasma, im, 5 mg/dose, male, 5 mg/dose IM as PD1-Vaxx, day 43, plasma, mean (generally n = 3)): 202 ng/mL
Tmax ([2]; male, cynomolgus monkey, plasma, im, 5 mg/dose, read-out: Tmax): 2 h
accumulation ratio (RA) ([2]; single female monkey, 5 mg/dose): 121
accumulation ratio (RA) ([2]; single male monkey, 5 mg/dose): 16.3
